The record followed here is patent US20250042886A1, “BIS(HETERO)ARYL THIOETHER OXADIAZINES AS FUNGICIDAL COMPOUNDS” (Bayer Aktiengesellschaft, priority 2021, published 2025).

For one data set, the system named is Pyricularia oryzae. Put plainly: microbe, parasite or virus in culture. The data set is classed as cell-based. Conditions: 120 h; for inhibition at 20 ppm: read-out: efficacy (inhibition of fungal growth), 20 ppm of active ingredient, liquid culture, 5 days incubation; for inhibition at 50 µM: read-out: efficacy (inhibition of fungal growth), 50 μMol/l of active ingredient, liquid culture, 5 days incubation.

Data set [1] in a line: Measurement of Log P values by HPLC on reversed phase columns (EEC directive 79/831 Annex V.A8). The data set is classed as physicochemical. As to conditions: Table 1, compounds of formula (I); method [a]: LC-UV, acidic range, 0.1% formic acid in water and acetonitrile.
The test system of a further data set is Sphaerotheca fuliginea. Put plainly: In vivo preventive test on Sphaerotheca fuliginea (powdery mildew on cucurbits). As to conditions: Podosphaera fuliginea, 192 h; 500 ppm of active ingredient, sprayed on young gherkin plants 24 h before inoculation; evaluated 8 days after inoculation; read-out: efficacy. As to the method: B-3. […] The active ingredients were made soluble and homogenized in a mixture of Dimethyl sulfoxide/Acetone//Tween® 80 and then diluted in water to the desired concentration. The young plants of gherkin were treated by spraying the active ingredient prepared as described above. Control plants were treated only with an aqueous solution of Acetone/Dimethyl sulfoxide/Tween® 80. After 24 hours, the plants were contaminated by spraying the leaves with an aqueous suspension of Sphaerotheca fuliginea spores.

Data set [2] concerns Colletotrichum lindemuthianum. Put plainly: Colletotrichum lindemuthianum in vitro cell test. Format: cell-based. Conditions: 144 h, liquid culture, 6 days incubation, read-out: efficacy (inhibition of fungal growth); for inhibition at 20 ppm: 20 ppm of active ingredient; for inhibition at 50 µM: 50 μMol/l of active ingredient. The procedure, abridged:
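Inhibition of spore germination and mycelium growth, as absorbance relative to untreated wells, was read on day 6. Compounds from DMSO stocks were added to a spore suspension in glucose/peptone/yeast extract broth.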

Data set [3] relates to Botrytis cinerea. Put plainly: In vivo preventive test on Botrytis cinerea (grey mould). As to conditions: 500 ppm of active ingredient, sprayed on young gherkin or cabbage plants 24 h before inoculation, evaluated 4 to 5 days after inoculation, read-out: efficacy. Put shortly: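 Young plants of gherkin or cabbage were sprayed with water-diluted compound formulated in DMSO/acetone/Tween 80, with solvent-only controls. Inoculation followed 24 h later by spraying an aqueous spore suspension of Botrytis cinerea onto leaves.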

The subject of data set [4] is Botrytis cinerea. Put plainly: Botrytis cinerea in vitro cell test. Format: cell-based. Conditions: 144 h, liquid culture, 6 days incubation, read-out: efficacy (inhibition of fungal growth); for inhibition at 20 ppm: 20 ppm of active ingredient; for inhibition at 50 µM: 50 μMol/l of active ingredient. Put shortly: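 Liquid-culture germination/growth test: spore suspension in synthetic medium (salts, urea, KNO3, saccharose, trace elements, thiamine, biotin) with compound dissolved in DMSO. Absorbance of mycelial growth measured at day 6, compared with untreated wells to give inhibition.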

For a further data set, the system named is Septoria tritici. Nature of the data set: Septoria tritici in vitro cell test. Format: cell-based. Conditions: Zymoseptoria tritici, 168 h; 20 ppm of active ingredient; liquid culture, 7 days incubation; read-out: efficacy (inhibition of fungal growth). As to the method:
B-11. Septoria tritici In Vitro Cell Test • Solvent: DMSO • Culture medium: 1 g KH2PO4 (VWR), 1 g K2HPO4 (VWR), 0.5 g Urea (VWR), 3 g KNO3 (Prolabo), 10 g saccharose (VWR), 0.5 g MgSO4, 7H2O (Sigma), 0.07 g CaCl2, 2H2O (Prolabo), 0.2 mg MnSO4, H2O (Sigma), 0.6 mg CuSO4, 5H2O (Sigma), 7.9 mg ZnSO4, 7H2O (Sigma), 0.1 mg H3BO3 (Merck), 0.14 mg NaMoO4, 2H2O (Sigma), 2 mg thiamine (Sigma), 0.1 mg biotine (VWR), 4 mg FeSO4, 7H2O (Sigma), QSP 1 liter • Inoculum: spore suspension Fungicides were solubilized in DMSO and the solution used to prepare the required range of concentrations. […] A spore suspension of S. tritici was prepared and diluted to the desired spore density. Fungicides were evaluated for their ability to inhibit spore germination and mycelium growth in liquid culture assay. The compounds were added in the desired concentration to the culture medium with spores. […] Inhibition of fungal growth was determined by comparing the absorbance values in wells containing the fungicides with the absorbance in control wells without fungicides.

In a further data set the test system is Pyrenophora teres. Nature of the data set: Pyrenophora teres in vitro cell test. The data set is classed as cell-based. Conditions: 144 h, liquid culture, 6 days incubation, read-out: efficacy (inhibition of fungal growth); for inhibition at 20 ppm: 20 ppm of active ingredient; for inhibition at 50 µM: 50 μMol/l of active ingredient. The procedure, abridged: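 Compounds in DMSO were added to P. teres spore suspensions in glucose/peptone/yeast-extract liquid medium, testing inhibition of spore germination and mycelium growth. After 6 days, mycelium growth was read by absorbance. Inhibition was calculated relative to fungicide-free control wells.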

In data set [5] the test system is Colletotrichum lindemuthianum. Nature of the data set: In vivo preventive test on Colletotrichum lindemuthianum (leaf spot on bean). Conditions: 168 h, 500 ppm of active ingredient, sprayed on young bean plants 24 h before inoculation, evaluated 7 days after inoculation, read-out: efficacy. As to the method: B-4. […] The active ingredients were made soluble and homogenized in a mixture of Dimethyl sulfoxide/Acetone//Tween® 80 and then diluted in water to the desired concentration. The young plants of bean were treated by spraying the active ingredient prepared as described above. Control plants were treated only with an aqueous solution of Acetone/Dimethyl sulfoxide/Tween® 80. After 24 hours, the plants were contaminated by spraying the leaves with an aqueous suspension of Colletotrichum lindemuthianum spores.

In the next data set the test system is Alternaria alternata. Put plainly: Alternaria alternata in vitro cell test. The data set is classed as cell-based. Conditions: 120 h, liquid culture, 5 days incubation, read-out: efficacy (inhibition of fungal growth); for inhibition at 20 ppm: 20 ppm of active ingredient; for inhibition at 50 µM: 50 μMol/l of active ingredient. Put shortly:
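Spores in glucose/mycological peptone/yeast extract liquid medium were exposed to DMSO-dissolved fungicides for 5 days. Inhibition of germination and mycelial growth was read spectrophotometrically, comparing absorbance against fungicide-free control wells.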

Another data set relates to Fusarium culmorum. Nature of the data set: Fusarium culmorum in vitro cell test. The data set is classed as cell-based. Conditions: 120 h, liquid culture, 5 days incubation, read-out: efficacy (inhibition of fungal growth); for inhibition at 20 ppm: 20 ppm of active ingredient; for inhibition at 50 µM: 50 μMol/l of active ingredient. Put shortly: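 Spores in liquid mineral-salts/saccharose medium exposed to compounds (DMSO ≤1% final) for 5 days. Mycelium growth measured spectrometrically, with inhibition derived from absorbance relative to fungicide-free control wells.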

In a further data set the test system is Alternaria brassicae. Nature of the data set: In vivo preventive test on Alternaria brassicae (leaf spot on radish or cabbage). Conditions: 500 ppm of active ingredient, sprayed on young radish or cabbage plants 24 h before inoculation, evaluated 3 to 4 days after inoculation, read-out: efficacy. Put shortly:
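Young radish or cabbage plants sprayed preventively with compound formulated in DMSO/acetone/Tween 80 and diluted in water; vehicle-treated plants as controls. Leaves inoculated by spraying an aqueous Alternaria brassicae spore suspension 24 h after treatment.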

Consider `Clc1ccc(C[C@@H]2CON=C(c3cc(Cl)nnc3Sc3cccc(Br)c3)N2)c(Cl)c1` (racemic) [Compound I-005], for which the inhibition at 20 ppm (with Pyricularia oryzae; in data set [2]; with Botrytis cinerea [4]) was 90 to 100% throughout. This compound returned a chromatographic logP in data set [1] of 4.88. Further, the pest or weed control at 500 ppm in the data set on Sphaerotheca fuliginea was in the range of 80 to 89%; with Botrytis cinerea [3], 90 to 100%.
In the case of `Cc1ccc(C[C@H]2CON=C(c3nc(C)ncc3Sc3cccc(C(F)(F)F)c3)N2)c(C)c1` (racemic) [Compound I-007], the inhibition at 20 ppm was 80 to 89% in the data set with Septoria tritici; 70 to 79% in the data set on Pyricularia oryzae; 90 to 100% in the data set on Pyrenophora teres; 90 to 100% in [2]; 90 to 100% in the data set with Botrytis cinerea [4]. The compound also showed a chromatographic logP in data set [1] of 5.21. The pest or weed control at 500 ppm (in the data set on Sphaerotheca fuliginea; in [5]; with Botrytis cinerea [3]) was 90 to 100% each time.
Regarding `Clc1cccc(Sc2cnc(Cl)cc2C2=NOC[C@@H](Cc3ccc(Cl)cc3Cl)N2)c1` (racemic) [Compound I-008], the inhibition at 20 ppm with Septoria tritici was in the range of 90 to 100%; with Alternaria alternata, 80 to 89%; with Pyricularia oryzae, 90 to 100%; with Pyrenophora teres, 90 to 100%; in the data set on Fusarium culmorum it was 90 to 100%; in data set [2] it was 90 to 100%. Also, the inhibition at 20 ppm in the data set on Botrytis cinerea [4] was in the range of 90 to 100%. For the same compound, the chromatographic logP in [1] came out at 4.9.
For the compound `COc1cccc(Sc2cnc(C)nc2C2=NOC[C@H](Cc3ccc(C)cc3C)N2)c1` (racemic) [Compound I-009], the inhibition at 20 ppm in the data set with Septoria tritici was in the range of 70 to 79%; in data set [2], 80 to 89%; with Botrytis cinerea [4], 90 to 100%. For the same compound, the chromatographic logP in [1] stood at 4.67. For the same compound, the pest or weed control at 500 ppm in the data set on Alternaria brassicae lay within 80 to 89%; in data set [5], 70 to 79%; in the data set with Botrytis cinerea [3] it was 80 to 89%.
As to `Cc1cccc(Sc2cnc(Cl)cc2C2=NOC[C@@H](Cc3ccc(Cl)cc3Cl)N2)c1` (racemic) [Compound I-011], the inhibition at 20 ppm lay within 90 to 100% in the data set on Septoria tritici; 70 to 79% with Alternaria alternata; 90 to 100% in the data set on Pyricularia oryzae; 90 to 100% in the data set on Pyrenophora teres; 90 to 100% in the data set on Fusarium culmorum; 90 to 100% in data set [2]. In addition, the inhibition at 20 ppm in the data set with Botrytis cinerea [4] lay in the range of 90 to 100%. In addition, the chromatographic logP in [1] was determined as 4.86. In addition, in the data set on Botrytis cinerea [3], the pest or weed control at 500 ppm lay in the range of 90 to 100%.
With `COc1cccc(Sc2cnc3ccccc3c2C2=NOC[C@H](Cc3ccc(C)cc3C)N2)c1` (racemic) [Compound I-012], the inhibition at 20 ppm with Septoria tritici lay in the range of 70 to 79%; in the data set with Pyrenophora teres it was 90 to 100%; in [2] it was 90 to 100%; in the data set on Botrytis cinerea [4] it was 90 to 100%. In data set [1], the chromatographic logP came out at 4.06.
As to `FC(F)(F)c1cccc(Sc2nnc(Cl)cc2C2=NOC[C@H](Cc3ccc(Cl)cc3Cl)N2)c1` (racemic) [Compound I-016], the inhibition at 20 ppm was 70 to 79% in the data set with Septoria tritici; 80 to 89% in the data set with Pyricularia oryzae; 90 to 100% in the data set on Pyrenophora teres; 90 to 100% in [2]; 90 to 100% in the data set with Botrytis cinerea [4]. In addition, the chromatographic logP in data set [1] stood at 4.86.
As to `Cc1ccc(C[C@@H]2CON=C(c3cc(Cl)nnc3S(=O)(=O)c3ccc(C(F)(F)F)cc3)N2)c(C)c1` (racemic) [Compound I-018], the inhibition at 20 ppm in the data set with Septoria tritici was 90 to 100%; in the data set on Pyricularia oryzae, 90 to 100%; in [2] it was 80 to 89%. In data set [1], this compound registered a chromatographic logP of 4.28.
For `Cc1ccc(C[C@H]2CON=C(c3c(Sc4cccc(Cl)c4)cnc4ccccc34)N2)c(C)c1` (racemic) [Compound I-024], the inhibition at 20 ppm (in the data set on Septoria tritici; in the data set on Alternaria alternata; in the data set with Pyricularia oryzae; in the data set with Pyrenophora teres; with Fusarium culmorum; in data set [2]) was 90 to 100% each time. The inhibition at 20 ppm with Botrytis cinerea [4] lay in the range of 90 to 100%. The chromatographic logP in [1] came out at 4.46.
In data set [1], `FC(F)(F)c1ccc(Sc2nnc(Cl)cc2C2=NOC[C@@H](Cc3ccc(Br)cc3Cl)N2)cc1` (racemic) [Compound I-035] yielded a chromatographic logP of 5. Besides, the figures for the pest or weed control at 500 ppm (in the data set with Sphaerotheca fuliginea; in [5]; in the data set on Botrytis cinerea [3]) were 80 to 89%, 90 to 100% and 90 to 100%, respectively.
Take `Cc1ccc([C@H]2CON=C(c3c(Sc4cccc(Cl)c4F)nnc4ccccc34)N2)s1` (racemic) [Compound I-108]: the inhibition at 50 µM (in the data set with Alternaria alternata; in the data set on Pyricularia oryzae; with Pyrenophora teres; in the data set with Fusarium culmorum; in data set [2]; in the data set on Botrytis cinerea [4]) was 90 to 100% each time. The same compound returned a chromatographic logP in data set [1] of 3.68. In addition, the pest or weed control at 500 ppm (in the data set with Alternaria brassicae; in data set [5]; in the data set on Botrytis cinerea [3]) was 90 to 100% throughout.
In the case of `Cc1ccc([C@H]2CON=C(c3c(Sc4cccc(C(F)(F)F)c4)nnc4ccccc34)N2)s1` (racemic) [Compound I-109], the inhibition at 50 µM in the data set with Alternaria alternata fell in the range of 90 to 100%; in the data set with Pyricularia oryzae, 70 to 79%; in the data set on Pyrenophora teres it was 90 to 100%; in the data set on Fusarium culmorum it was 80 to 89%; in [2], 90 to 100%; in the data set with Botrytis cinerea [4], 90 to 100%. In [1], this compound yielded a chromatographic logP of 3.81. For the same compound, the pest or weed control at 500 ppm (in the data set with Alternaria brassicae; in data set [5]; with Botrytis cinerea [3]) was 90 to 100% each time.
Consider `Cc1ccc([C@H]2CON=C(c3c(Sc4cccc(Cl)c4)nnc4ccccc34)N2)s1` (racemic) [Compound I-135], for which the inhibition at 50 µM (in the data set on Alternaria alternata; in the data set with Pyricularia oryzae; with Pyrenophora teres; in the data set on Fusarium culmorum; in [2]; in the data set on Botrytis cinerea [4]) was 90 to 100% each time. Moreover, the chromatographic logP in [1] amounted to 3.61. For the same compound, the pest or weed control at 500 ppm (with Alternaria brassicae; in data set [5]; in the data set with Botrytis cinerea [3]) was 90 to 100% throughout.

As a reminder, the chromatographic logP is a lipophilicity value derived from retention on a column. A lower chromatographic logP goes with lower lipophilicity.
